Experimental data from patent US4153709A, “N-Heterocyclic ureas as immune regulants” (Eli Lilly and Company, priority 1977, dated 1979).

What follows are molecules tested on antibody response to sheep blood cells (hemaglutination titer) (assay: Immune regulating test: suppression of hemaglutination titer by 4-fold factor in mice (i.p. drug, i.p. sheep blood cells), Tables 1-15). Conditions: Mus musculus, ip, 192 h, × 3, intraperitoneal, minimum dose to suppress the hemaglutination titer by a 4-fold factor, 8 days after antigen, read-out: Immuno-Suppressant ED4-Fold.
Type: in vivo, Swiss mice
Description: The ability of compounds according to the above formulas to alter immune mechanisms in a host animal was measured by their activity according to the following test. Groups of five 20-gram Swiss mice were injected intraperitoneally with standardized suspensions of an antigen--in this instance sheep blook cells. […] Eight days after injection of the antigen, the mice were bled and the sera from each group pooled. Antibody determinations were made on the serum pools by a hemaglutination pattern procedure and comparisons made between treated and control animals. In Tables 1-18 which follow, the activity of the compounds listed therein is given in terms of the minimum dose of drug necessary to suppress the hemaglutination titer by a 4-fold factor in the treated mice as compared with control titers.

`O=C(Nc1nc2ccccc2s1)Nc1ccccc1Cl` [Table 11: o-chlorophenyl, H, S] and `O=C(Nc1nc2ccccc2s1)Nc1ccccc1F` [Table 11: o-fluorophenyl, H, S] cannot be ordered by minimal effective dose: less than 50 mg/kg for the first, less than 6.2 mg/kg for the second.

Going from `O=C(Nc1nc2ccc3ccccc3c2s1)Nc1cccc2ccccc12` [Table 15: α-naphthyl] to `O=C(Nc1nc2c(ccc3ccccc32)s1)Nc1cccc2ccccc12` [Table 14: α-naphthyl], the minimal effective dose rises from 0.4 mg/kg to 3.1 mg/kg (7.8-fold).

Going from `COc1ccc(NC(=O)Nc2nc3ccccc3s2)cc1` [Table 11: p-anisyl, H, S] to `O=C(Nc1ccc(Br)cc1)Nc1nc2ccccc2s1` [Table 11: p-bromophenyl, H, S], the minimal effective dose rises from 50 mg/kg to 100 mg/kg (2-fold).

`O=C(Nc1nc2ccccc2s1)Nc1cc(Cl)ccc1Cl` [Table 11: 2,5-dichlorophenyl, H, S] and `O=C(Nc1ccc(Cl)c(Cl)c1)Nc1nc2ccccc2s1` [Table 11: 3,4-dichlorophenyl, H, S] are the same in minimal effective dose: 12.5 mg/kg for the first, 12.5 mg/kg for the second.

`O=C(Nc1ccccc1)Nc1nc2c([N+](=O)[O-])cccc2[nH]1` [Table 6: 4(7), phenyl] and `O=C(Nc1ccccc1)Nc1nc2cc(Cl)ccc2[nH]1` [Table 2: phenyl] are the same in minimal effective dose: 25 mg/kg for the first, 25 mg/kg for the second.

First: Cc1cc2nc(NC(=O)Nc3ccc(Cl)c(Cl)c3)[nH]c2cc1C [Table 5: 3,4-dichlorophenyl, CH3, CH3]
Second: Cc1cc2nc(NC(=O)Nc3cccc(Cl)c3)[nH]c2cc1C [Table 5: m-chlorophenyl, CH3, CH3]
The minimal effective dose of the first is 8-fold lower: 100 mg/kg for the first, 800 mg/kg for the second.

Going from `Cc1cc2nc(NC(=O)Nc3ccccc3)[nH]c2cc1C` [Table 5: phenyl, CH3, CH3] to `Cc1cc2nc(NC(=O)Nc3ccccc3F)[nH]c2cc1C` [Table 5: o-fluorophenyl, CH3, CH3], the minimal effective dose rises from 12.5 mg/kg to 100 mg/kg (8-fold).

Compared with `O=C(Nc1nc2c(ccc3ccccc32)s1)Nc1ccccc1Cl` [Table 14: o-chlorophenyl], `O=C(Nc1nc2c(ccc3ccccc32)s1)Nc1ccccc1F` [Table 14: o-fluorophenyl] is 2-fold lower in minimal effective dose: 6.2 mg/kg for the first, 3.1 mg/kg for the second.

`O=C(Nc1nc2c(s1)CCCC2)Nc1cccc2ccccc12` [Table 13: α-naphthyl] and `COc1ccc2nc(NC(=O)Nc3cccc4ccccc34)sc2c1` [Table 11: α-naphthyl, 6-CH3 O, S] cannot be ordered by minimal effective dose: less than 50 mg/kg for the first, less than 50 mg/kg for the second.

Compared with `O=C(Nc1nc2cc(Cl)ccc2o1)Nc1cccc2ccccc12` [Table 11: α-naphthyl, 5-Cl, O], `O=C(Nc1nc2cc(Cl)ccc2[nH]1)Nc1cccc2ccccc12` [Table 2: α-naphthyl] is 32-fold lower in minimal effective dose: 200 mg/kg for the first, 6.2 mg/kg for the second.

First: O=C(Nc1ccc(F)cc1)Nc1nc2ccccc2[nH]1 [Table 1: p-fluorophenyl, H]
Second: O=C(Nc1ccc(Br)cc1)Nc1nc2ccccc2[nH]1 [Table 1: p-bromophenyl, H]
The minimal effective dose of the first is 16-fold lower: 6.2 mg/kg for the first, 100 mg/kg for the second.

First: CCOC(=O)c1ccc2[nH]c(NC(=O)Nc3ccc(Cl)cc3)nc2c1 [Table 3: p-chlorophenyl]
Second: CCOC(=O)c1ccc2[nH]c(NC(=O)Nc3ccc(C)cc3)nc2c1 [Table 3: p-tolyl]
The minimal effective dose of the first is 2-fold lower: 50 mg/kg for the first, 100 mg/kg for the second.

Compared with `O=C(Nc1ccc(F)cc1)Nc1nc2c(ccc3ccccc32)[nH]1` [Table 10: p-fluorophenyl], `O=C(Nc1cccc(Cl)c1)Nc1nc2c(ccc3ccccc32)[nH]1` [Table 10: m-chlorophenyl] is 500-fold lower in minimal effective dose: 25 mg/kg for the first, 0.05 mg/kg for the second.

`O=C(Nc1ccc(Br)cc1)Nc1nc2c(ccc3ccccc32)s1` [Table 14: p-bromophenyl] and `O=C(Nc1ccc(Cl)cc1)Nc1nc2c(ccc3ccccc32)s1` [Table 14: p-chlorophenyl] cannot be ordered by minimal effective dose: less than 50 mg/kg for the first, less than 100 mg/kg for the second.

First: Cn1c(NC(=O)Nc2cccc3ccccc23)nc2ccccc21 [Table 8: α-naphthyl, methyl]
Second: CN(C(=O)Nc1cccc2ccccc12)c1nc2ccccc2s1 [Table 12: α-naphthyl]
The minimal effective dose of the first is higher: greater than 50 mg/kg for the first, 50 mg/kg for the second.

First: CCOC(=O)c1ccc2[nH]c(NC(=O)Nc3ccccc3F)nc2c1 [Table 3: o-fluorophenyl]
Second: CCOC(=O)c1ccc2[nH]c(NC(=O)Nc3ccccc3C)nc2c1 [Table 3: o-tolyl]
The minimal effective dose of the first is lower: less than 6.2 mg/kg for the first, 25 mg/kg for the second.

Going from `Cc1ccc2[nH]c(NC(=O)Nc3cccc4ccccc34)nc2c1` [Table 4: α-naphthyl, CH3] to `O=C(Nc1nc2cc3ccccc3cc2[nH]1)Nc1cccc2ccccc12` [Table 9: α-naphthyl], the minimal effective dose rises from less than 0.4 mg/kg to 50 mg/kg.

`CN(C(=O)Nc1ccccc1)c1nc2ccccc2s1` [Table 12: phenyl] and `O=C(Nc1ccccc1)Nc1nc2ccccc2o1` [Table 11: phenyl, H, O] are the same in minimal effective dose: 50 mg/kg for the first, 50 mg/kg for the second.

`O=C(Nc1cccc(Cl)c1)Nc1nc2ccccc2s1` [Table 11: m-chlorophenyl, H, S] and `O=C(Nc1cccc(C(F)(F)F)c1)Nc1nc2ccccc2s1` [Table 11: m-trifluoromethylphenyl, H, S] cannot be ordered by minimal effective dose: 1.6 mg/kg for the first, less than 50 mg/kg for the second.

First: CCOC(=O)c1ccc2[nH]c(NC(=O)Nc3ccccc3)nc2c1 [Table 3: phenyl]
Second: CCOC(=O)c1ccc2[nH]c(NC(=O)Nc3ccc(F)cc3)nc2c1 [Table 3: p-fluorophenyl]
The minimal effective dose of the first is lower: less than 25 mg/kg for the first, 25 mg/kg for the second.

Going from `O=C(Nc1ccccc1)Nc1nc2ccccc2n1-c1ccccc1` [Table 8: phenyl, phenyl] to `O=C(Nc1ccccc1)Nc1nc2c(ccc3ccccc32)s1` [Table 14: phenyl], the minimal effective dose falls from 50 mg/kg to less than 12.5 mg/kg.

`Cc1cccc(NC(=O)Nc2nc3c(ccc4ccccc43)s2)c1` [Table 14: m-tolyl] and `O=C(Nc1cccc(C(F)(F)F)c1)Nc1nc2c(ccc3ccccc32)s1` [Table 14: m-trifluoromethylphenyl] cannot be ordered by minimal effective dose: 3.1 mg/kg for the first, less than 6.2 mg/kg for the second.

Compared with `Cc1cc2nc(NC(=O)Nc3ccc(F)cc3)sc2cc1C`, `Cc1cc2nc(NC(=O)Nc3ccc(Br)cc3)sc2cc1C` [Table 11: p-bromophenyl, 5,6-dimethyl, S] is 8-fold higher in minimal effective dose: 12.5 mg/kg for the first, 100 mg/kg for the second.

Going from `Cc1cc2nc(NC(=O)Nc3ccc(F)cc3F)[nH]c2cc1C` [Table 5: 2,4-difluorophenyl, CH3, CH3] to `Cc1cc2nc(NC(=O)Nc3ccccc3C)[nH]c2cc1C` [Table 5: o-tolyl, CH3, CH3], the minimal effective dose rises from 0.4 mg/kg to 12.5 mg/kg (31-fold).

`Cc1cccc(NC(=O)Nc2nc3cc(C)c(C)cc3s2)c1` [Table 11: m-tolyl, 5,6-dimethyl, S] and `Cc1cc2nc(NC(=O)Nc3cccc(C(F)(F)F)c3)sc2cc1C` are the same in minimal effective dose: 25 mg/kg for the first, 25 mg/kg for the second.

First: Cc1cc2nc(NC(=O)Nc3ccc(Cl)cc3)[nH]c2cc1C [Table 5: p-chlorophenyl, CH3, CH3]
Second: Cc1ccc(NC(=O)Nc2nc3cc(C)c(C)cc3[nH]2)cc1 [Table 5: p-tolyl, CH3, CH3]
The minimal effective dose of the first is 4.2-fold higher: 12.5 mg/kg for the first, 3 mg/kg for the second.

Going from `O=C(Nc1ccc(F)cc1)Nc1nc2cc3ccccc3cc2[nH]1` [Table 9: p-fluorophenyl] to `O=C(Nc1ccc(F)cc1)Nc1nc2cc(Cl)ccc2[nH]1` [Table 2: p-fluorophenyl], the minimal effective dose falls from greater than 25 mg/kg to less than 12.5 mg/kg.

`O=C(Nc1ccccc1)Nc1nc2c(Cl)cccc2s1` [Table 11: phenyl, 4-Cl, S] and `Cc1ccccc1NC(=O)Nc1nc2ccccc2s1` [Table 11: o-tolyl, H, S] cannot be ordered by minimal effective dose: less than 12.5 mg/kg for the first, less than 50 mg/kg for the second.

Going from `Cc1ccccc1NC(=O)Nc1nc2ccccc2[nH]1` [Table 1: o-tolyl, H] to `Cc1ccccc1NC(=O)Nc1nc2cc(Cl)ccc2[nH]1` [Table 2: o-tolyl], the minimal effective dose rises from 25 mg/kg to 100 mg/kg (4-fold).

Going from `COc1ccc2nc(NC(=O)Nc3ccc(Cl)cc3)sc2c1` [Table 11: p-chlorophenyl, 6-CH3 O, S] to `COc1ccc2nc(NC(=O)Nc3ccc(Br)cc3)sc2c1` [Table 11: p-bromophenyl, 6-CH3 O, S], the minimal effective dose rises from less than 50 mg/kg to 100 mg/kg.

Compared with `Cc1ccccc1NC(=O)Nc1nc2c(ccc3ccccc32)s1` [Table 14: o-tolyl], `O=C(Nc1nc2c(ccc3ccccc32)s1)Nc1cc(Cl)ccc1Cl` [Table 14: 2,5-dichlorophenyl] is higher in minimal effective dose: less than 1.6 mg/kg for the first, 100 mg/kg for the second.

`COc1ccc2nc(NC(=O)Nc3cccc(Cl)c3)sc2c1` [Table 11: m-chlorophenyl, 6-CH3 O, S] and `COc1ccc2nc(NC(=O)Nc3ccc(C)cc3)sc2c1` [Table 11: p-tolyl, 6-CH3 O, S] cannot be ordered by minimal effective dose: 12.5 mg/kg for the first, less than 100 mg/kg for the second.

`CN(C(=O)Nc1cccc2ccccc12)c1nc2ccccc2[nH]1` [Table 7: α-naphthyl, H] and `O=C(Nc1nc2c(ccc3ccccc32)[nH]1)Nc1cccc2ccccc12` [Table 10: α-naphthyl] cannot be ordered by minimal effective dose: 25 mg/kg for the first, greater than 6.2 mg/kg for the second.

Compared with `O=C(Nc1ccc(Cl)cc1)Nc1nc2ccccc2[nH]1` [Table 1: p-chlorophenyl, H], `O=C(Nc1ccc(Cl)c(Cl)c1)Nc1nc2ccccc2[nH]1` [Table 1: 3,4-dichlorophenyl, H] is 16-fold lower in minimal effective dose: 12.5 mg/kg for the first, 0.8 mg/kg for the second.

Compared with `COc1ccc2nc(NC(=O)Nc3ccccc3C)sc2c1` [Table 11: o-tolyl, 6-CH3 O, S], `COc1ccccc1NC(=O)Nc1nc2ccccc2s1` [Table 11: o-anisyl, H, S] is higher in minimal effective dose: less than 50 mg/kg for the first, 50 mg/kg for the second.

Going from `Cc1ccc(NC(=O)Nc2nc3cc(Cl)ccc3[nH]2)cc1` [Table 2: p-tolyl] to `Cn1c(NC(=O)Nc2ccc(Cl)cc2)nc2ccccc21` [Table 8: p-chlorophenyl, methyl], the minimal effective dose rises from 50 mg/kg to greater than 50 mg/kg.

Going from `O=C(Nc1cccc(Cl)c1)Nc1nc2cc(Cl)ccc2o1` [Table 11: m-chlorophenyl, 5-Cl, O] to `Cc1cc2nc(NC(=O)Nc3ccc(Cl)c(Cl)c3)sc2cc1C`, the minimal effective dose falls from 400 mg/kg to 50 mg/kg (8-fold).

`Cc1cc2nc(NC(=O)Nc3ccccc3Cl)sc2cc1C` gave a minimal effective dose of less than 100 mg/kg.
